Measured values from patent US20260182574A1 (priority 2022, published 2026).

What was measured:
[1] = test system: Botrytis cinerea; experiment: Activity against the grey mold Botrytis cinerea in the microtiterplate test; format: cell-based; conditions: 31 ppm; microtiter plate, 405 nm, 7 days after inoculation
[2] = test system: Corynespora cassiicola G413A mutant; experiment: Activity against Corynespora cassiicola G413A mutant in the microtiterplate test; format: cell-based; conditions: 31 ppm; microtiter plate; G413A mutant isolates
[3] = test system: Cercospora sojina; experiment: Activity against Cercospora sojina in the microtiterplate test; format: cell-based; conditions: 31 ppm; microtiter plate
[4] = test system: Botrytis cinerea; experiment: Long lasting control of Botrytis cinerea on leaves of green pepper (green house); format: in vivo; conditions: 125 ppm; green pepper sprayed 7 days before inoculation; assessed after 5 days; untreated plants 90% infected
Experimental: (§1) The compound was dissolved in a mixture of acetone and/or dimethylsulfoxide and the wetting agent/emulsifier Wettol, which is based on ethoxylated alkylphenoles, in a ratio (volume) solvent-emulsifier of 99 to 1 to give a total volume of 5 ml. Subsequently, water was added to total volume of 100 ml.
(§2) This stock solution was then diluted with the described solvent-emulsifier-water mixture to the final concentration given in the table below.
Young seedlings of green pepper were grown in pots to the 4 to 5 leaf stage. These plants were sprayed to run-off with previously described spray solution, containing the concentration of active ingredient or mixture mentioned in the table below. The plants were then cultivated in the greenhouse for 7 days and then inoculated with an aqueous biomalt or DOB solution containing the spore suspension of Botrytis cinerea. Then the plants were immediately transferred to a humid chamber. After 5 days at 22 to 24 °C and a saturated relative humidity, the extent of fungal attack on the leaves was visually assessed as % diseased leaf area.

[5] = test system: Sclerotinia sclerotiorum; experiment: Preventative fungicidal control of white mold on cabbage caused by Sclerotinia sclerotiorum (green house); format: in vivo; conditions: 125 ppm; cabbage sprayed 1 day before inoculation; assessed after 8 days; untreated plants 80% infected
Experimental: as §1, §2
Cabagges were grown in pots to the 13 to 14 leaf stage. These plants were sprayed to run-off with previously described spray solution, containing the concentration of active ingredient or their mixture mentioned in the table below. The plants could air-dry. The next day the cabbage leaves were inoculated with 50 μl of a mixture of ground petals, methylcellulose, water, and yeast-bactopeptone media (includes spores of Sclerotinia sclerotiorum). After 8 days at 21° C. and a relative humidity of 60% the extent of fungal attack on the leaves were visually assessed as % diseased leaf area.

[6] = test system: Corynespora zeae; experiment: Activity against Corynespora zeae in the microtiterplate test; format: cell-based; conditions: 31 ppm; microtiter plate

| Compound | growth of the pathogen (relative to compound-free control = 100%) [1] | growth of the pathogen (relative to compound-free control = 100%) [2] | growth of the pathogen (relative to compound-free control = 100%) [3] | growth of the pathogen (% diseased leaf area) [4] | growth of the pathogen (% diseased leaf area) [5] | growth of the pathogen (relative to compound-free control = 100%) [6] |
| --- | --- | --- | --- | --- | --- | --- |
| CC1(C)C(=O)N=C(c2cnc3c(F)cccc3c2)c2ccccc2N1C#N [Ex-12] | 4% | – | – | – | – | – |
| CN1CC2(CC2)N=C(c2cnc3c(F)cccc3c2)c2cccc(F)c21 [Ex-17] | 4% | 11% | 6% | up to 15% | up to 8% | – |
| CN1c2ccccc2C(c2cnc3c(F)cccc3c2)=NC(=O)C1(C)C [Ex-10] | 4% | – | – | – | – | 8% |
